What was measured:
[1] = target: human serum albumin (HSA) (Homo sapiens, UniProt P02768); experiment: SPR
[2] = tested on: α1-acid glycoprotein (AGP); experiment: SPR
hCB2R [3] = target: T1, hCB2R (Homo sapiens, UniProt P34972); experiment: cAMP determination assay, forskolin-stimulated HEK293-CB2R cells; conditions: for effect on forskolin-stimulated cAMP accumulation, preliminary screening: 200 nM and 1 μM; for effect on forskolin-stimulated cAMP accumulation, preliminary screening / CB2 functional profile in cAMP assay: HEK293-CB2R cells; for CB2R antagonism of CP55,940 effect in cAMP assay: CP55,940 100 nM and 1 μM, compound at 200 nM (31 also at 1 μM)
hCB2R [4] = target: T1, hCB2R; experiment: [35S]-GTPγS binding assay, CB2R-containing membranes
human CB1 receptor = human CB1 receptor (Homo sapiens, UniProt P21554); format: biochemical
[5] = target: human CB1 (hCB1) cannabinoid receptor (Homo sapiens, UniProt P21554); experiment: biochemical; format: binding
[6] = target: human CB2 (hCB2) cannabinoid receptor (Homo sapiens, UniProt P34972); experiment: [3H]-CP55,940 radioligand competition binding, hCB2 membranes
Chain of human CB2 (hCB2) cannabinoid receptor (P34972 whole entry): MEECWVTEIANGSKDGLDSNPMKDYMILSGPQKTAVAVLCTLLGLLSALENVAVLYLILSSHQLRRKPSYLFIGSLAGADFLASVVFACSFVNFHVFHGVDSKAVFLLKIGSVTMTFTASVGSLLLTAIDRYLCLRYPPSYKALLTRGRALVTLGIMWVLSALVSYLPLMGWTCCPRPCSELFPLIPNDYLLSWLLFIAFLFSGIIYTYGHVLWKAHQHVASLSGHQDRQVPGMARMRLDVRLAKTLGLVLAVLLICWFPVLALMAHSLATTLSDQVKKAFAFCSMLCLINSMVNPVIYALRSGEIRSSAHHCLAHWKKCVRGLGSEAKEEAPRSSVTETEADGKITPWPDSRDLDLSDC

Chain of human serum albumin (HSA) (P02768 25-609): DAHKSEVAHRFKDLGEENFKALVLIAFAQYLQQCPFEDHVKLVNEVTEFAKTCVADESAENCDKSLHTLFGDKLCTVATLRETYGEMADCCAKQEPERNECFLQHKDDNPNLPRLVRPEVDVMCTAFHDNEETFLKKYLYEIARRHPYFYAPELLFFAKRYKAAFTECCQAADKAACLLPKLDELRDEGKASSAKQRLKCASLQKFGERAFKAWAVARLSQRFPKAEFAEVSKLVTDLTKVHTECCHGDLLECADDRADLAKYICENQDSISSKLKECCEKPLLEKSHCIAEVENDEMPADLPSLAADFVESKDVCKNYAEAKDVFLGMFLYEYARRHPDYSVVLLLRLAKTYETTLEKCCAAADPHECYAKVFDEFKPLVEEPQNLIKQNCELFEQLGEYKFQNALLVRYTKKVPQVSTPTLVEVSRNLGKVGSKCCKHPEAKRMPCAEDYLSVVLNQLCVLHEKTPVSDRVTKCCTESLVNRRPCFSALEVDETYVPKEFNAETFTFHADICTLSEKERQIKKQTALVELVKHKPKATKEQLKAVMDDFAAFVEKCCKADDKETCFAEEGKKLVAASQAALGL
T1 sequence (P34972 whole entry): as the sequence (P34972 whole entry) above
Chain of human CB1 receptor (P21554 whole entry): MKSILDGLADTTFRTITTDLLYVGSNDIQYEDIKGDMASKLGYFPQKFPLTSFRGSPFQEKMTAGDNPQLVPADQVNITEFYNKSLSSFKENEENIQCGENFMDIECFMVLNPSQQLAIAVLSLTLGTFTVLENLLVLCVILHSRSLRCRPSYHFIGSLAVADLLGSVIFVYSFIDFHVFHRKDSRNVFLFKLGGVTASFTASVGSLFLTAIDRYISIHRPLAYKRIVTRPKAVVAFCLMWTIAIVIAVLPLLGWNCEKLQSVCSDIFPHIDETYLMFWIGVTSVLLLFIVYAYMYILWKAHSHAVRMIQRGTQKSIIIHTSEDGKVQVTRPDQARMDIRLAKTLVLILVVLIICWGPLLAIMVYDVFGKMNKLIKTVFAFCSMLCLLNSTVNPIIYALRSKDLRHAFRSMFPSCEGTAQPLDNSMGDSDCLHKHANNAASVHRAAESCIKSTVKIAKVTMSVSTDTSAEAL
Chain of human CB1 (hCB1) cannabinoid receptor (P21554 whole entry): as above

CCCCCCC(C)(C)c1cc(OCCCBr)c2c(c1)OC(C)(C)c1cn(C)nc1-2 [Compound 37, 9-(3-Bromopropoxy)-7-(1,1-dimethylheptyl)-2,4-dihydro-2,4,4-trimethylchromeno[4,3-c]py-razole] was tested, and the HSA binding level [1] was “very high”, the AGP binding level [2] was “very high” and the “effect on forskolin-stimulated cAMP accumulation, preliminary screening” value (“effect … preliminary screening” below) (hCB2R [3]) was “low to high inhibition”. The “CB2 functional profile in cAMP assay” value (hCB2R [3]) was “partial or weak agonists”.
With CCCCCCC(C)(C)c1cc(OCCO)c2c(c1)OC(C)(C)c1cn(C)nc1-2 [Compound 35, 7-(1,1-Dimethylheptyl)-2,4-dihydro-9-(2-hydroxyethoxy)-2,4,4-trimethylchromeno[4,3-c]py-razole] the “effect … preliminary screening” value (hCB2R [3]) was “no effect” and the “CB2R antagonism of CP55,940 effect in cAMP assay” value (from here on “CB2R antagonism”) (hCB2R [3]) was “able to antagonize the effect of the cannabinoid agonist CP55,940”.
CCCCCCC(C)(C)c1cc(OC)c2c(c1)OC(C)(C)c1cnoc1-2 [Compound 43, 7-(1,1-Dimethylheptyl)-9-methoxy-4,4-dimethyl-4H-chromeno-[3,4-d]isoxazole] was tested, and the HSA binding level [1] was “medium”, the AGP binding level [2] was “medium” and the IC50 (hCB2R [4]) was 38.6 ± 6.7 nM.
CCCCC/C=C\C/C=C\C/C=C\C/C=C\CCCC(=O)NCCO [AEA, anandamide, reference compound] was tested, and the AGP binding level [2] was “very high”.
For CCCCCCC(C)(C)c1cc(OC)c2c(c1)OC(C)(C)c1cn(C)nc1-2 [Compound 16, 7-(1,1-Dimethylheptyl)-2,4-dihydro-9-methox y-2,4,4-trimethylchromeno[4,3-c]pyrazole], the “effect … preliminary screening” value (hCB2R [3]) was “no effect” and the “CB2R antagonism” value (hCB2R [3]) was “able to antagonize the effect of the cannabinoid agonist CP55,940”.
For CCCCCCC(C)(C)c1cc(O)c2c(c1)OC(C)(C)c1cnoc1-2 [Compound 42, 7-(1,1-Dimethylheptyl)-4,4-dimethyl-4H-chromeno[3,4-d]-isoxazol-9-ol], the “fold more potent than 10b and 22 in [35S]-GTPγS binding (CB1R)” value (human CB1 receptor) was “at least 10 fold”, the HSA binding level [1] was “very high” and the AGP binding level [2] was “very high”. It also gave an IC50 (hCB2R [4]) of 50.2 ± 24.9 nM.
For CCCCCCC(C)(C)c1ccc([C@@H]2C[C@H](O)CC[C@H]2CCCO)c(O)c1 [CP55,940, reference compound], the HSA binding level [1] was “high”.
In the case of CCCCCCC(C)(C)c1cc(OCc2ccccc2)c2c(c1)OC(C)(C)c1cn[nH]c1-2 [Compound 22, 9-Benzyloxy-2,4-dihydro-7 - (1,1-di m ethylheptyl)-4,4 - dimethylchromeno[4,3-c]pyrazole], the “effect … preliminary screening” value (hCB2R [3]) is reported as “low to high inhibition” and the “CB2 functional profile in cAMP assay” value (hCB2R [3]) is reported as “partial or weak agonists”.
CCCCCCC(C)(C)c1cc(OCCCO)c2c(c1)OC(C)(C)c1cnoc1-2 [Compound 44, 7-(1,1-Dimethylheptyl)-9-(3-hydroxypropoxy)-4,4-dimethyl-4H-chromeno[3,4-d]isoxazole] gave an IC50 (hCB2R [4]) of 540 ± 208 nM.
CCCCCCC(C)(C)c1cc(OCCCO)c2c(c1)OC(C)(C)c1cn[nH]c1-2 [Compound 28, 7-(1,1-Dimethylheptyl)-2,4-dihydro-9-(3-hydroxypropoxy)-4,4-dimethylchromeno[4,3-c]pyrazole] was tested, and the HSA binding level [1] was “very high”, the AGP binding level [2] was “very high” and the “effect … preliminary screening” value (hCB2R [3]) was “low to high inhibition”. For the same molecule, the “CB2 functional profile in cAMP assay” value (hCB2R [3]) was “partial or weak agonists”.
For CCCCCCC(C)(C)c1cc(OCCBr)c2c(c1)OC(C)(C)c1cnn(CC)c1-2 [Compound 39, 9-(2-Bromoethoxy)-7-(1,1-dimethylheptyl)-1-ethyl-1,4-dihydro-4,4-dimethylchromeno[4,3-c]pyrazole], the Ki [5] was 1330 ± 320 nM, the Ki [6] was 78.7 ± 11.3 nM and the HSA binding level [1] was “medium”. The AGP binding level [2] was “medium”, the “effect … preliminary screening” value (hCB2R [3]) was “low to high inhibition” and the “CB2 functional profile in cAMP assay” value (hCB2R [3]) was “partial or weak agonists”.
CCCCCCC(C)(C)c1cc(OCCO)c2c(c1)OC(C)(C)c1cn[nH]c1-2 [Compound 34, 7-(1,1-Dimethylheptyl)-2,4-dihydro-9-(2-hydroxyethoxy)-4,4-dimethylchromeno[4,3-c]pyra-zole] was tested, and the IC50 (hCB2R [4]) was 95.1 ± 7.2 nM, the “effect … preliminary screening” value (hCB2R [3]) was “low to high inhibition” and the “CB2 functional profile in cAMP assay” value (hCB2R [3]) was “potent CB2 agonists”.
For CCCCC/C=C\C/C=C\C/C=C\C/C=C\CCCC(=O)OC(CO)CO [Compound 2-AG, 2-arachidonoylglycerol, reference compound], the HSA binding level [1] was “high” and the AGP binding level [2] was “very high”.
CCCCCCC(C)(C)c1cc2c(c3c1CCCO3)-c1c(cnn1CC)C(C)(C)O2 [Compound 40, 7-(1,1-Dimethylheptyl)-1-ethyl-1,4,9,10-tetrahydro-4,4-dimethyl-8H-pyrano[2′,3′:5,6]chrome-no[4,3-c]pyrazole] was tested, and the HSA binding level [1] was “medium” and the AGP binding level [2] was “medium”.
With C=C(C)[C@@H]1CCC(C)=C[C@H]1c1c(O)cc(CCCCC)cc1O [CBD, cannabidiol, reference compound] the HSA binding level [1] was “high” and the AGP binding level [2] was “very high”.
In the case of CCCCCCC(C)(C)c1cc(OC)c2c(c1)OC(C)(C)c1cn(CC)nc1-2 [Compound 18, 7-(1,1-Dimethylheptyl)-2-ethyl-2,4-dihydro-9-methoxy-4,4-dimethylchromeno[4,3-c]pyrazole], the HSA binding level [1] is reported as “very high”, the AGP binding level [2] is reported as “very high” and the “effect … preliminary screening” value (hCB2R [3]) is reported as “low to high inhibition”. The “CB2 functional profile in cAMP assay” value (hCB2R [3]) was “partial or weak agonists”.
CCCCCCC(C)(C)c1cc(OC)c2c(c1)OC(C)(C)c1cnn(CC)c1-2 [Compound 17, 7-(1,1-Dimethylheptyl)-1-ethyl-1,4-dihydro-9-methoxy-4,4-dimethylchromeno[4,3-c]pyrazole] was tested, and the “effect … preliminary screening” value (hCB2R [3]) was “low to high inhibition” and the “CB2 functional profile in cAMP assay” value (hCB2R [3]) was “partial or weak agonists”.
With CCCCCCC(C)(C)c1cc(OCCCO)c2c(c1)OC(C)(C)c1cn(CC)nc1-2 [Compound 31, 7-(1,1-Dimethylheptyl)-2-ethyl-2,4-dihydro-9-(3-hydroxypropoxy)-4,4-dimethylchromeno-[4,3-c]pyrazole] the “effect … preliminary screening” value (hCB2R [3]) was “no effect” and the “CB2R antagonism” value (hCB2R [3]) was “behaved as the CP55,940 antagonist only at the highest concentration”.
CCCCCCC(C)(C)c1cc(OCCO)c2c(c1)OC(C)(C)c1cn(CC)nc1-2 [Compound 36, 7-(1,1-Dimethylheptyl)-2-ethyl-2,4-dihydro-9-(2-hydroxyethoxy)-4,4-dimethylchromeno[4,3-c]pyrazole] was tested, and the HSA binding level [1] was “very high” and the AGP binding level [2] was “very high”.

Source: paper PMC5321205 (Journal of medicinal chemistry, 2016)
